System: wild-type BY4743 and yeast vacuolar amino acid mutants YPQ2, AVT2, AVT6
Experiment: Yeast dotting growth phenotype on high-concentration theanine medium
Format: cell-based
Details: theanine 50 mM
Procedure: Yeast mutants YPQ2, AVT2, and AVT6 are high-concentration theanine-sensitive strains, and their growth is inhibited in a high-concentration theanine environment, which was used to verify the stress resistance of the selected genes. The YPQ2 strain was streaked on YPDA Agar Medium and cultured upside down in a constant temperature incubator at 28° C. for 2-3 days. A well-grown single colony was picked in a 2 mL centrifuge tube, added with 1 mL of YPDA Liquid Medium, and incubated at 28° C. on a shaker at 180 r/min for one day. 200 μL of well-grown yeast suspension was transferred to 30 mL of YPDA Liquid Medium, and incubated on a shaker at 28° C. and 180 r/min for 12-24 h. […] 500 μL of PEG mixture and 5 μL of DTT (1 M, ready for use) were added and vortexed. […]
A single colony was picked in 20 mL of SD-U […] medium and shaken to an OD600 value of about 1.0 at 28° C. and 180 r/min (for about 48 h); 4 mL of yeast suspension was pipetted and centrifuged at 5,000 rpm for 2 min, the supernatant was discarded (under aseptic operation), cells were resuspended with sterile water, and the OD600 value was detected; the yeast suspension was diluted with sterile water to an OD600 value of 0.6 (the difference between the OD600 values of each sample should not exceed 0.02); (under aseptic operation) the yeast suspension was diluted to 10^0, 10^−1, 10^−2, and 10^−3 in turn. […]

**Q.** `CCNC(=O)CC[C@H](N)C(=O)O` [theanine] was tested. Which “growth of yeast under theanine treatment” value (CsVAAT3-transformed yeast mutants (pDR196-CsVAAT3)) did it give?
**A.** normal growth state

**Q.** What about the “growth of yeast under theanine treatment” value (wild-type BY4743 and mutants YPQ2, AVT2, AVT6 (empty vector pDR196), solid medium, 30° C., about three days) of the same compound?
**A.** significantly inhibited
